# Data taken from patent publication US20250230193A1, “CYCLIC COMPOUND HAVING SELECTIVE KRAS INHIBITORY EFFECT ON HRAS AND NRAS” (CHUGAI SEIYAKU KABUSHIKI KAISHA, priority 2022, published 2025).
# Where a SMILES comes first, the peptide text is derived from it. Bridges are numbered along the chain shown (N, C = ends). [ ]: non-standard residue; d: D form. hPhe(3-Cl-4-CF3) = N[C@@H](CCc1ccc(C(F)(F)F)c(Cl)c1)C(=O)O; NPrPhe(4-CF3) = CCCN[C@@H](Cc1ccc(C(F)(F)F)cc1)C(=O)O; NMeGly(cPent) = CN[C@H](C(=O)O)C1CCCC1; NMeD = CN[C@@H](CC(=O)O)C(=O)O; NMeL = CN[C@@H](CC(C)C)C(=O)O; Ac5c = NC1(C(=O)O)CCCC1; Sar = CNCC(=O)O
# Key:
# [1] = biological target: GDP-bound HRAS wild-type protein (Homo sapiens, UniProt P01112); test: Binding to HRAS by surface plasmon resonance (SPR), Single Cycle Kinetics; conditions: for HRAS/KRAS (ratio of KD value with respect to HRAS to KD value with respect to KRAS) / HRAS/KRAS (ratio of KD value for HRAS to KD value for KRAS): GDP-bound HRAS wild-type vs GDP-bound KRAS wild-type
# [2] = biological target: GDP-bound NRAS wild-type protein (Homo sapiens, UniProt P01111); test: Binding to NRAS by surface plasmon resonance (SPR), Single Cycle Kinetics; conditions: for NRAS/KRAS (ratio of KD value with respect to NRAS to KD value with respect to KRAS) / NRAS/KRAS (ratio of KD value for NRAS to KD value for KRAS): GDP-bound NRAS wild-type vs GDP-bound KRAS wild-type
# Sequence of GDP-bound NRAS wild-type protein (P01111 whole entry): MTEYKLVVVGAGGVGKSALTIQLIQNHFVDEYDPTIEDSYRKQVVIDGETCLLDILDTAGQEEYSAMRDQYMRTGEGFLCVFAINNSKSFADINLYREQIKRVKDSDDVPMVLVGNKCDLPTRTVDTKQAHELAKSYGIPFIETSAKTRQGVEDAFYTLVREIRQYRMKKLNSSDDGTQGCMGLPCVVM
# Sequence of GDP-bound HRAS wild-type protein (P01112 whole entry): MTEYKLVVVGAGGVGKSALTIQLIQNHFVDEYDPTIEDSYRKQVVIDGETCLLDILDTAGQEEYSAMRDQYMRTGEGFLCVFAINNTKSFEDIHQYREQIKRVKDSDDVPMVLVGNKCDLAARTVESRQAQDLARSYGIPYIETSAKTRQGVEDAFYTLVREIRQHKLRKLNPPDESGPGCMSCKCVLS
compound,measurement,setting,value
CCC[C@H]1C(=O)N[C@@H]([C@@H](C)CC)C(=O)N(C)CC(=O)N(C)[C@H]2C/C=C\CCN(C2=O)[C@@H](Cc2ccc(C)cc2)C(=O)N(C)CC(=O)N[C@@H](CCc2ccc(C(F)(F)F)c(OC)c2)C(=O)N2C[C@@H](C)C[C@H]2C(=O)N(C)C2(CCC2)C(=O)N(C)[C@@H](C2CCCC2)C(=O)N(C)[C@H](C(=O)N(C)C)CC(=O)N1C [PP2364],HRAS/KRAS (ratio of KD value with respect to HRAS to KD value with respect to KRAS),[1]; SPR,B (a compound having 3 or more and less than 10 is denoted as B)
same,NRAS/KRAS (ratio of KD value with respect to NRAS to KD value with respect to KRAS),[2]; SPR,A (a compound having 10 or more and less than 20 is denoted as A)
CCC[C@H]1C(=O)N[C@@H]([C@@H](C)CC)C(=O)N(C)CC(=O)N(C)[C@H]2C/C=C\CCN(C2=O)[C@@H](Cc2ccc(C(F)(F)F)cc2)C(=O)N(C)CC(=O)N[C@@H](CCc2cc(F)c(C(F)(F)F)c(F)c2)C(=O)N2C[C@H](OCC)C[C@H]2C(=O)NC2(CCC2)C(=O)N(C)[C@@H](C2CCCC2)C(=O)N(C)[C@H](C(=O)N(C)CCC)CC(=O)N1C [PP1389],HRAS/KRAS (ratio of KD value for GDP-bound HRAS wild-type protein to KD value for KRAS),"[1]; SPR, KD ratio class",A (a compound having 10 or more and less than 20 is denoted as A)
same,NRAS/KRAS (ratio of KD value for GDP-bound NRAS wild-type protein to KD value for KRAS),"[2]; SPR, KD ratio class",AA (a compound having 20 or more is denoted as AA)
CCC[C@H]1C(=O)N[C@@H]([C@@H](C)CC)C(=O)N(C)CC(=O)N(C)[C@H]2C/C=C\CCN(C2=O)[C@@H](Cc2ccc(C)cc2)C(=O)N(C)CC(=O)N[C@@H](CCc2ccc(C(F)(F)F)c(Cl)c2)C(=O)N2C[C@H](C)C[C@H]2C(=O)NC2(CC(C)(C)C2)C(=O)N(C)[C@@H](C2CCCC2)C(=O)N(C)[C@H](C(=O)N(C)CC)CC(=O)N1C [PP1894],HRAS/KRAS (ratio of KD value for HRAS to KD value for KRAS),"[1]; KD ratio, SPR",A (a compound having 10 or more and less than 20 is denoted as A)
same,NRAS/KRAS (ratio of KD value for NRAS to KD value for KRAS),"[2]; KD ratio, SPR",A (a compound having 10 or more and less than 20 is denoted as A)
CCCN1C(=O)CN(C)C(=O)CNC(=O)[C@H]([C@@H](C)CC)NC(=O)[C@H](CC(C)C)N(C)C(=O)C[C@@H](C(=O)N(C)C)N(C)C(=O)[C@H](C2CCCC2)N(C)C(=O)C2(CCCC2)NC(=O)[C@@H]2CCCN2C(=O)[C@H](CCc2ccc(C(F)(F)F)c(Cl)c2)NC(=O)CN(C)C(=O)[C@@H]1Cc1ccc(C(F)(F)F)cc1 [PP0417] ([NMeL]IG[Sar][NPrPhe(4-CF3)][Sar][hPhe(3-Cl-4-CF3)]P[Ac5c][NMeGly(cPent)][NMeD]-NMe2; lactam N-11),HRAS/KRAS (ratio of KD value with respect to GDP-bound HRAS wild-type protein to KD value with respect to KRAS),[1]; SPR,C (A compound having a KD ratio of 0.1 or more and less than 3 is denoted as C)
same,NRAS/KRAS (ratio of KD value with respect to GDP-bound NRAS wild-type protein to KD value with respect to KRAS),[2]; SPR,B (a compound having 3 or more and less than 10 is denoted as B)
CCC[C@H]1C(=O)N[C@@H]([C@@H](C)CC)C(=O)N(C)CC(=O)N(C)[C@H]2C/C=C\CCN(C2=O)[C@@H](Cc2ccc(C(F)(F)F)cc2)C(=O)N(C)CC(=O)N[C@@H](CCc2cc(F)c(C(F)(F)F)c(F)c2)C(=O)N2C[C@H](OCC)C[C@H]2C(=O)NC2(CC(F)(F)C2)C(=O)N(C)[C@@H](C2CCCC2)C(=O)N(C)[C@H](C(=O)N(C)CCC)CC(=O)N1C [PP1736],HRAS/KRAS (ratio of KD value for HRAS to KD value for KRAS),"[1]; KD ratio, SPR",A (a compound having 10 or more and less than 20 is denoted as A)
same,NRAS/KRAS (ratio of KD value for NRAS to KD value for KRAS),"[2]; KD ratio, SPR",A (a compound having 10 or more and less than 20 is denoted as A)
CC[C@H](C)[C@@H]1NC(=O)[C@H](CC(C)C)N(C)C(=O)C[C@@H](C(=O)N2CCOCC2)N(C)C(=O)[C@H](C2CCCC2)N(C)C(=O)C2(CCCC2)NC(=O)[C@@H]2CCCN2C(=O)[C@H](CCc2ccc(C(F)(F)F)c(Cl)c2)NC(=O)CN(C)C(=O)[C@H](Cc2ccc(Cl)cc2)N2CCCCC[C@@H](C2=O)N(C)C(=O)CN(C)C1=O [PP0613],HRAS/KRAS (ratio of KD value with respect to GDP-bound HRAS wild-type protein to KD value with respect to KRAS),[1]; SPR,B (a compound having 3 or more and less than 10 is denoted as B)
same,NRAS/KRAS (ratio of KD value with respect to GDP-bound NRAS wild-type protein to KD value with respect to KRAS),[2]; SPR,B (a compound having 3 or more and less than 10 is denoted as B)
CCC(CC)[C@H]1C(=O)N(C)[C@H](C(=O)N(C)C)CC(=O)N(C)[C@@H](COC)C(=O)N[C@@H]([C@@H](C)CC)C(=O)N(C)CC(=O)N(C)[C@H]2C/C=C\CCN(C2=O)[C@@H](Cc2ccc(C)cc2)C(=O)N(C)CC(=O)N[C@@H](CCc2cc(F)c(C(F)(F)F)c(F)c2)C(=O)N2CCCCC[C@H]2C(=O)NC2(CC(C)(C)C2)C(=O)N1C [PP2960],HRAS/KRAS (ratio of KD value with respect to GDP-bound HRAS wild-type protein to KD value with respect to KRAS),[1]; class symbols,A (a compound having 10 or more and less than 20 is denoted as A)
same,NRAS/KRAS (ratio of KD value with respect to GDP-bound NRAS wild-type protein to KD value with respect to KRAS),[2]; class symbols,A (a compound having 10 or more and less than 20 is denoted as A)
CC[C@H](C)[C@@H]1NC(=O)[C@H](CC(C)C)N(C)C(=O)C[C@@H](C(=O)N2CCOCC2)N(C)C(=O)[C@H](C2CCCC2)N(C)C(=O)C2(CCC2)NC(=O)[C@@H]2C[C@@H](OCC3CCCC3)CN2C(=O)[C@H](CCc2cc(F)c(C(F)(F)F)c(F)c2)NC(=O)CN(C)C(=O)[C@H](Cc2ccc(C(F)(F)F)cc2)N2CCCC[C@@H](C2=O)N(C)C(=O)CN(C)C1=O [PP1001],HRAS/KRAS (ratio of KD value with respect to HRAS to KD value with respect to KRAS),"[1]; KD ratio, SPR",B (a compound having 3 or more and less than 10 is denoted as B)
same,NRAS/KRAS (ratio of KD value with respect to NRAS to KD value with respect to KRAS),"[2]; KD ratio, SPR",B (a compound having 3 or more and less than 10 is denoted as B)
